Measured values as given in patent US12552772B2, “2-pyrazole anilines and related analogs for inhibiting YAP/TAZ-TEAD” (KATHOLIEKE UNIVERSITEIT LEUVEN, priority 2021, dated 2026).
pEC50: −log10 of the molar value.

Experiments:
Assay type in all cases: cell-based
NCI-H2052 = assay: Mesothelioma cell line proliferation assay (ATPlite), NCI-H2052; details: NCI-H2052 cells, 6 days, ATPlite cell viability
Method: (§1) Mesothelioma cell lines, NCI-H226 and NCI-H2052 (all sourced from the ATCC cell culture collection) are plated in 96-well plates (Corning® 96 Well White Polystyrene Microplate clear flat bottom, white polystyrene (TC-Treated)), at 1500 cells/well in full medium (RPMI 1640 ATCC modification with L-glutamine, HEPES, Phenol Red, Sodium Pyruvate, High glucose, Low sodium bicarbonate and 10% fetal bovine serum). Cells are incubated overnight at 37° C. in an incubator with 5% CO2. Then compounds, dissolved in DMSO, are added in dose-response. Cells are incubated with compound dilutions for another 6 days at 37° C. in an incubator with 5% CO2. Cell viability is quantitated using the ATPlite kit (Perkin-Elmer) and the luminescence is read-out using an Envision instrument (Perkin-Elmer). The amount of relative light units produced using the ATPlite kit is used to calculated percent of inhibition.
(§2) The activities of example compounds tested are depicted in the table below. The activity ranges A, B and C refer to EC50 values in the mesothelioma cell line proliferation assay as described as follows: “A”: EC50<1 μM; “B”: 1 μM s EC50≤10 μM and “C”: EC50>10 μM. NT: not tested.

[1] = system: YAP/TAZ-TEAD transcription; assay: Reporter gene assay for measuring the inhibition of YAP/TAZ-TEAD transcription (TEAD-responsive element luciferase reporter in Hek293T cells); details: 24 hours incubation
In short: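 Percent inhibition, scaled between vehicle (0%) and a positive control inhibitor (100%), came from SteadyLite luciferase signal after 24 h compound exposure at 37 °C/5% CO2. Cells: Hek293T transiently carrying a TEAD-responsive luciferase reporter; EC50 derived.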

NCI-H226 = assay: Mesothelioma cell line proliferation assay (ATPlite), NCI-H226; details: NCI-H226 cells, 6 days, ATPlite cell viability
Method: as §1, §2

Structure (SMILES)	pEC50 (NCI-H2052; Homo sapiens, NCI-H2052, 144 h)	pEC50 ([1]; Homo sapiens, HEK-293T)	pEC50 (NCI-H226; Homo sapiens, 144 h)	pEC50 (NCI-H2052)	pEC50 [1]	pEC50 (NCI-H226)
C=CC(=O)NCc1cc(-c2ccc(F)cc2)nc(-c2ccn(C(F)F)n2)n1 [Cpd. No. 255, N-((2-(1-(difluoromethyl)-1H-pyrazol-3-yl)-6-(4-fluorophenyl)pyrimidin-4-yl)methyl)acrylamide]	5.00 to 6.00	> 6.00	> 6.00			
C=CC(=O)N1CCC(c2ccc(-c3ccc(F)cc3)cc2-c2ccn(C)n2)C1 (stereo not drawn) [Cpd. No. 258, 1-(3-(4′-fluoro-3-(1-methyl-1H-pyrazol-3-yl)-[1,1′-biphenyl]-4-yl)pyrrolidin-1-yl)prop-2-en-1-one]	> 6.00	> 6.00	> 6.00			
C=CC(=O)N1CCC(c2ccc(-c3ccc(F)cc3)cc2-c2ccn(C(F)F)n2)C1 (stereo not drawn) [Cpd. No. 261, 1-(3-(3-(1-(difluoromethyl)-1H-pyrazol-3-yl)-4′-fluoro-[1,1′-biphenyl]-4-yl)pyrrolidin-1-yl)prop-2-en-1-one]		> 6.00	> 6.00	5.00 to 6.00		
C=CC(=O)N1CCC(c2ccc(-c3ccc(F)cc3)cc2-c2ccn(C(F)F)n2)C1 (stereo not drawn) [Cpd. No. 261-En1, 1-(3-(3-(1-(difluoromethyl)-1H-pyrazol-3-yl)-4′-fluoro-[1,1′-biphenyl]-4-yl)pyrrolidin-1-yl)prop-2-en-1-one]				5.00 to 6.00	> 6.00	> 6.00
C=CC(=O)N1CCC(c2ccc(-c3ccc(F)cc3)cc2-c2ccn(C(F)F)n2)C1 (stereo not drawn) [Cpd. No. 261-En2, 1-(3-(3-(1-(difluoromethyl)-1H-pyrazol-3-yl)-4′-fluoro-[1,1′-biphenyl]-4-yl)pyrrolidin-1-yl)prop-2-en-1-one]				< 5.00	> 6.00	> 6.00
C=CC(=O)N1CCC(c2cnc(-c3ccc(F)cc3)cc2-c2ccn(C(F)F)n2)C1 (stereo not drawn) [Cpd. No. 262, 1-(3-(4-(1-(difluoromethyl)-1H-pyrazol-3-yl)-6-(4-fluorophenyl)pyridin-3-yl)pyrrolidin-1-yl)prop-2-en-1-one]		> 6.00	> 6.00	5.00 to 6.00		
C=CC(=O)N1CCC(c2cnc(-c3ccc(F)cc3)cc2-c2ccn(C(F)F)n2)C1 (stereo not drawn) [Cpd. No. 262-En1, 1-(3-(4-(1-(difluoromethyl)-1H-pyrazol-3-yl)-6-(4-fluorophenyl)pyridin-3-yl)pyrrolidin-1-yl)prop-2-en-1-one]				5.00 to 6.00	> 6.00	> 6.00
C=CC(=O)N1CCC(c2cnc(-c3ccc(F)cc3)cc2-c2ccn(C(F)F)n2)C1 (stereo not drawn) [Cpd. No. 262-En2, 1-(3-(4-(1-(difluoromethyl)-1H-pyrazol-3-yl)-6-(4-fluorophenyl)pyridin-3-yl)pyrrolidin-1-yl)prop-2-en-1-one]				< 5.00	> 6.00	> 6.00
CNS(=O)(=O)CCNc1cc(-c2ccccc2)cc(-c2ccn(Cc3cccnc3)n2)c1 [compound 052, N-methyl-2-((5-(1-(pyridin-3-ylmethyl)-1H-pyrazol-3-yl)-[1,1′-biphenyl]-3-yl)amino)ethane-1-sulfonamide]	< 5.00	4.70 to 6.00	< 5.00			
C=CC(=O)Nc1cc(-c2ccccc2)cc(-c2ccn(Cc3cccnc3)n2)c1 [compound 083, N-(5-(1-(pyridin-3-ylmethyl)-1H-pyrazol-3-yl)-[1,1′-biphenyl]-3-yl)acrylamide]	5.00 to 6.00	> 6.00	> 6.00			
CNS(=O)(=O)CCNc1cnc(-c2ccc(F)cc2)cc1-c1ccn(C(F)F)n1 [compound 131, 2-((4-(1-(difluoromethyl)-1H-pyrazol-3-yl)-6-(4-fluorophenyl)pyridin-3-yl)amino)-N-methylethane-1-sulfonamide]	< 5.00	> 6.00	5.00 to 6.00			
CNS(=O)(=O)CCNc1ccc(-c2ccc(F)cc2)nc1-c1ccn(C(F)F)n1 [compound 132, 2-((2-(1-(difluoromethyl)-1H-pyrazol-3-yl)-6-(4-fluorophenyl)pyridin-3-yl)amino)-N-methylethane-1-sulfonamide]	< 5.00	> 6.00	< 5.00			
C=CC(=O)NCc1cc(-c2ccccc2)cc(-c2ccn(C)n2)c1 [compound 137, N-((5-(1-methyl-1H-pyrazol-3-yl)-[1,1′-biphenyl]-3-yl)methyl)acrylamide]	< 5.00	> 6.00	> 6.00			
C=CC(=O)NCc1ccc(-c2ccc(C(F)(F)F)cc2)cc1-c1ccn(C)n1 [compound 140, N-((3-(1-methyl-1H-pyrazol-3-yl)-4′-(trifluoromethyl)-[1,1′-biphenyl]-4-yl)methyl)acrylamide]	> 6.00	> 6.00	> 6.00			
C=CC(=O)NCc1ccc(-c2cccc(C(F)(F)F)c2)cc1-c1ccn(C)n1 [compound 141, N-((3-(1-methyl-1H-pyrazol-3-yl)-3′-(trifluoromethyl)-[1,1′-biphenyl]-4-yl)methyl)acrylamide]	> 6.00	> 6.00	> 6.00			
C=CC(=O)NCc1ccc(-c2cccc(F)c2)cc1-c1ccn(C)n1 [compound 142, N-((3′-fluoro-3-(1-methyl-1H-pyrazol-3-yl)-[1,1′-biphenyl]-4-yl)methyl)acrylamide]	> 6.00	> 6.00	> 6.00			
C=CC(=O)NCc1ccc(-c2ccc(F)cc2)cc1-c1ccn(C)n1 [compound 143, N-((4′-fluoro-3-(1-methyl-1H-pyrazol-3-yl)-[1,1′-biphenyl]-4-yl)methyl)acrylamide]	> 6.00	> 6.00	> 6.00			
C=CC(=O)NCc1ccc(-c2ccc(F)c(F)c2)cc1-c1ccn(C)n1 [compound 144, N-((3′,4′-difluoro-3-(1-methyl-1H-pyrazol-3-yl)-[1,1′-biphenyl]-4-yl)methyl)acrylamide]	> 6.00	> 6.00	> 6.00			
C=CC(=O)NCc1ccc(-c2ccc(F)cc2F)cc1-c1ccn(C)n1 [compound 145, N-((2′,4′-difluoro-3-(1-methyl-1H-pyrazol-3-yl)-[1,1′-biphenyl]-4-yl)methyl)acrylamide]	> 6.00	> 6.00	> 6.00			
C=CC(=O)NCc1ccc(-c2ccc(F)cc2)cc1-c1ccn(CCOC)n1 [compound 149, N-((4′-fluoro-3-(1-(2-methoxyethyl)-1H-pyrazol-3-yl)-[1,1′-biphenyl]-4-yl)methyl)acrylamide]	> 6.00	> 6.00	> 6.00			
C=CC(=O)NCc1ccc(-c2ccc(F)cc2)cc1-c1ccn(CC2CC2)n1 [compound 153, N-((3-(1-(cyclopropylmethyl)-1H-pyrazol-3-yl)-4′-fluoro-[1,1′-biphenyl]-4-yl)methyl)acrylamide]	> 6.00	> 6.00	> 6.00			
C=CC(=O)NCc1ccc(-c2ccc(Cl)cc2)cc1-c1ccn(C)n1 [compound 157, N-((4′-chloro-3-(1-methyl-1H-pyrazol-3-yl)-[1,1′-biphenyl]-4-yl)methyl)acrylamide]	> 6.00	> 6.00	> 6.00			
C=CC(=O)NCc1ccc(-c2ccc(F)cc2)cc1-c1cc[nH]n1 [compound 161, N-((4′-fluoro-3-(1H-pyrazol-3-yl)-[1,1′-biphenyl]-4-yl)methyl)acrylamide]	> 6.00	> 6.00	> 6.00			
C=CC(=O)NCc1ccc(-c2ccc(F)cc2)cc1-c1cnn(C)c1 [compound 162, N-((4′-fluoro-3-(1-methyl-1H-pyrazol-4-yl)-[1,1′-biphenyl]-4-yl)methyl)acrylamide]	> 6.00	> 6.00	> 6.00			
C=CC(=O)NCc1ccc(-c2ccc(F)cc2)cc1-c1ccccn1 [compound 165, N-((4′-fluoro-3-(pyridin-2-yl)-[1,1′-biphenyl]-4-yl)methyl)acrylamide]	> 6.00	> 6.00	> 6.00			
